One test has as its system A431. The test can be described thus: Antitumor activity in vitro, SRB cell proliferation inhibition. In kind it is cell-based. Particulars: 72 h incubation, Logit method. As for the experimental part:
(§1) Evaluation of Antitumor Activity In Vitro
(§2) Cell Strains: A431; MCF-7
(§3) Experiment Design: Cells were incubated with different concentrations of compounds for 72 hours. The inhibition of cell proliferation by the compounds was evaluated by SRB, followed by calculation of the inhibition rate. Then, value of IC50 was calculated by using-Logit method base on the inhibition rate and used to compare in vitro antitumor activity of the compounds.
(§4) Method for Calculating the Inhibition Rate: Inhibition rate (%)=(OD value of control group−OD value of drug group)/OD value of control group×100%

In a further test the test system is MCF-7. The test is described as above. In kind it is cell-based. The following applies: 72 h incubation, Logit method. As to the method: as §1, §2, §3, §4
[1] abbreviates: Homo sapiens, A-431, A431 cells.
The mark [2] stands for this setting: Homo sapiens, MCF7, MCF-7 cells.

For `CCN(C)[C@@H](CS(C)(=O)=O)c1ccc(-c2ccc3ncnc(Nc4ccc(OCc5cccc(F)c5)c(Cl)c4)c3c2)o1` [Compound 113, (R)—N-(4-(3-fluorobenzyloxy)-3-chlorophenyl)-6-(5-(1-(N-methyl, N-ethyl-amino)-2-(methylsulfonyl)ethyl)furan-2-yl)quinazolin-4-amine], the IC50 was 0.758 µM with A431 (setting [1]) and 7.07 µM in the test on MCF-7 (setting [2]).

Take `CS(=O)(=O)C[C@@H](N)c1ccc(-c2ccc3ncnc(Nc4ccc5c(cnn5Cc5cccc(F)c5)c4)c3c2)o1` [Compound 144, (S)—N-(1-(3-fluorobenzyl)-1H-indazol-5-yl)-6-(5-(1-(amino)-2-(methylsulfonyl)ethyl)furan-2-yl)quinazolin-4-amine]: the concentration for half-maximal inhibition (IC50) with A431 (setting [1]) turned out to be 0.711 µM; with MCF-7 (setting [2]), 4.97 µM.

Take `C=CCN[C@@H](CS(C)(=O)=O)c1ccc(-c2ccc3ncnc(Nc4ccc(OCc5cccc(F)c5)c(Cl)c4)c3c2)o1` [Compound 114, (R)—N-(4-(3-fluorobenzyl-oxy)-3-chlorophenyl)-6-(5-(1-(allyl-amino)-2-(methylsulfonyl)ethyl)furan-2-yl)quinazolin-4-amine]: the IC50 is 0.489 µM in the test on A431 (setting [1]) and 7.9 µM in the test on MCF-7 (setting [2]).

Take `CN[C@@H](CS(C)(=O)=O)c1ccc(-c2ccc3ncnc(Nc4ccc(OCc5cccc(F)c5)c(Cl)c4)c3c2)o1` [Compound 106, (R)—N-(4-(3-fluorobenzyl-oxy)-3-chlorophenyl)-6-(5-(1-(methylamino)-2-(methylsulfonyl)ethyl)furan-2-yl)quinazolin-4-amine]: the IC50 was 0.469 µM with A431 (setting [1]) and 7.8 µM with MCF-7 (setting [2]).

For `CCN(C)[C@@H](CS(C)(=O)=O)c1cnc(-c2ccc3ncnc(Nc4ccc(OCc5cccc(F)c5)c(Cl)c4)c3c2)s1` [Compound 126], the IC50 with A431 (A431 cells) was determined as 0.488 µM; in the test with MCF-7 (MCF-7 cells) it was 7.76 µM.

In the case of `C#CCN[C@H](CS(C)(=O)=O)c1ccc(-c2ccc3ncnc(Nc4ccc(OCc5cccc(F)c5)c(Cl)c4)c3c2)o1` [Compound 102, (S)—N-(4-(3-fluorobenzyl-oxy)-3-chlorophenyl)-6-(5-(1-(propargyl-amino)-2-(methylsulfonyl)ethyl)furan-2-yl)quinazolin-4-amine], the IC50 in the test on A431 (setting [1]) was determined as 0.457 µM; with MCF-7 (setting [2]) it was 8.9 µM.

As to `CCN[C@@H](CS(C)(=O)=O)c1cnc(-c2ccc3ncnc(Nc4ccc(OCc5cccc(F)c5)c(Cl)c4)c3c2)s1` [Compound 120], the results for the IC50 with A431 (A431 cells) and in the test on MCF-7 (MCF-7 cells) were 0.658 µM and 7.56 µM, respectively.

Turning to `CCN[C@@H](CS(C)(=O)=O)c1ccc(-c2ccc3ncnc(Nc4ccc(OCc5cccc(F)c5)c(Cl)c4)c3c2)o1` [Compound 107, (R)—N-(4-(3-fluorobenzyl-oxy)-3-chlorophenyl)-6-(5-(1-(ethylamino)-2-(methylsulfonyl)ethyl)furan-2-yl)quinazolin-4-amine], the 50% inhibitory concentration (IC50) stood at 0.578 µM in the test on A431 (setting [1]) and 6.77 µM in the test on MCF-7 (setting [2]).

Turning to `CCN(CC)[C@H](CS(C)(=O)=O)c1cnc(-c2ccc3ncnc(Nc4ccc(OCc5cccc(F)c5)c(Cl)c4)c3c2)s1` [Compound 137], the 50% inhibitory concentration (IC50) in the test on A431 (A431 cells) was found to be 0.589 µM; with MCF-7 (MCF-7 cells), 5.47 µM.

For the compound `CCCN[C@@H](CS(C)(=O)=O)c1ccc(-c2ccc3ncnc(Nc4ccc(OCc5cccc(F)c5)c(Cl)c4)c3c2)o1` [Compound 108, (R)—N-(4-(3-fluorobenzyl-oxy)-3-chlorophenyl)-6-(5-(1-(propylamino)-2-(methylsulfonyl)ethyl)furan-2-yl)quinazolin-4-amine], the half-maximal inhibitory concentration (IC50) with A431 (setting [1]) came out at 0.529 µM; in the test on MCF-7 (setting [2]), 5.9 µM.

Consider `CON[C@H](CS(C)(=O)=O)c1cnc(-c2ccc3ncnc(Nc4ccc(OCc5cccc(F)c5)c(Cl)c4)c3c2)s1` [Compound 142], for which the IC50 in the test with A431 (A431 cells) was determined as 0.499 µM; with MCF-7 (MCF-7 cells) it was 7.87 µM.

In the case of `CN[C@H](CS(C)(=O)=O)c1ccc(-c2ccc3ncnc(Nc4ccc5c(cnn5Cc5cccc(F)c5)c4)c3c2)o1` [Compound 145, (S)—N-(1-(3-fluorobenzyl)-1H-indazol-5-yl)-6-(5-(1-(methylamino)-2-(methylsulfonyl)ethyl)furan-2-yl)quinazolin-4-amine], the half-maximal inhibitory concentration (IC50) came to 0.581 µM in the test on A431 (setting [1]) and 8.24 µM with MCF-7 (setting [2]).

On to `CS(=O)(=O)C[C@H](N)c1cnc(-c2ccc3ncnc(Nc4ccc(OCc5cccc(F)c5)c(Cl)c4)c3c2)s1` [Compound 118, (S)—N-(4-(3-fluorobenzyl-oxy)-3-chlorophenyl)-6-(5-(1-(amino)-2-(methylsulfonyl)ethyl)thiazole-2-yl)quinazolin-4-amine], for which the IC50 with A431 (setting [1]) stood at 0.525 µM; in the test on MCF-7 (setting [2]), 6.69 µM.

On to `CON[C@@H](CS(C)(=O)=O)c1ccc(-c2ccc3ncnc(Nc4ccc(OCc5cccc(F)c5)c(Cl)c4)c3c2)o1` [Compound 116], for which the results for the IC50 in the test with A431 (A431 cells) and in the test with MCF-7 (MCF-7 cells) were 0.441 µM and 4.8 µM, respectively.

Take `CCN(CC)[C@@H](CS(C)(=O)=O)c1ccc(-c2ccc3ncnc(Nc4ccc(OCc5cccc(F)c5)c(Cl)c4)c3c2)o1` [Compound 111, (R)—N-(4-(3-fluorobenzyl-oxy)-3-chlorophenyl)-6-(5-(1-(N,N-diethyl-amino)-2-(methylsulfonyl)ethyl)furan-2-yl)quinazolin-4-amine]: the IC50 in the test on A431 (setting [1]) is 0.699 µM; with MCF-7 (setting [2]), 6.82 µM.

Regarding `CCN(C)[C@H](CS(C)(=O)=O)c1cnc(-c2ccc3ncnc(Nc4ccc(OCc5cccc(F)c5)c(Cl)c4)c3c2)s1` [Compound 139], the IC50 in the test on A431 (A431 cells) came out at 0.452 µM; with MCF-7 (MCF-7 cells), 4.13 µM.

On to `CCCN[C@@H](CS(C)(=O)=O)c1cnc(-c2ccc3ncnc(Nc4ccc(OCc5cccc(F)c5)c(Cl)c4)c3c2)s1` [Compound 121], for which the IC50 turned out to be 0.465 µM in the test with A431 (A431 cells) and 6.39 µM in the test on MCF-7 (MCF-7 cells).

Regarding `CN(C)[C@@H](CS(C)(=O)=O)c1cnc(-c2ccc3ncnc(Nc4ccc(OCc5cccc(F)c5)c(Cl)c4)c3c2)s1` [Compound 123], the IC50 in the test with A431 (A431 cells) was determined as 0.499 µM; in the test with MCF-7 (MCF-7 cells), 6.33 µM.

For the compound `C=CCN[C@@H](CS(C)(=O)=O)c1cnc(-c2ccc3ncnc(Nc4ccc(OCc5cccc(F)c5)c(Cl)c4)c3c2)s1` [Compound 127], the results for the IC50 in the test on A431 (A431 cells) and in the test on MCF-7 (MCF-7 cells) were 0.521 µM and 5.89 µM, respectively.

With `CON[C@H](CS(C)(=O)=O)c1ccc(-c2ccc3ncnc(Nc4ccc5c(cnn5Cc5cccc(F)c5)c4)c3c2)o1` [Compound 155], the half-inhibitory concentration (IC50) with A431 (A431 cells) worked out at 0.48 µM; in the test on MCF-7 (MCF-7 cells), 8.59 µM.

Consider `C#CCN[C@H](CS(C)(=O)=O)c1ccc(-c2ccc3ncnc(Nc4ccc5c(cnn5Cc5cccc(F)c5)c4)c3c2)o1` [Compound 154, (S)—N-(1-(3-fluorobenzyl)-1H-indazol-5-yl)-6-(5-(1-(propargyl-amino)-2-(methylsulfonyl)ethyl)furan-2-yl)quinazolin-4-amine], for which the IC50 stood at 0.624 µM in the test on A431 (setting [1]) and 4.9 µM with MCF-7 (setting [2]).

With `C=CCN[C@H](CS(C)(=O)=O)c1ccc(-c2ccc3ncnc(Nc4ccc(OCc5cccc(F)c5)c(Cl)c4)c3c2)o1` [Compound 101, (S)—N-(4-(3-fluorobenzyl-oxy)-3-chlorophenyl)-6-(5-(1-(allyl-amino)-2-(methylsulfonyl)ethyl)furan-2-yl)quinazolin-4-amine], the half-maximal inhibitory concentration (IC50) in the test on A431 (setting [1]) turned out to be 0.588 µM; in the test with MCF-7 (setting [2]), 10.4 µM.

As for `C#CCN[C@@H](CS(C)(=O)=O)c1cnc(-c2ccc3ncnc(Nc4ccc(OCc5cccc(F)c5)c(Cl)c4)c3c2)s1` [Compound 128], the results for the IC50 in the test on A431 (A431 cells) and in the test with MCF-7 (MCF-7 cells) were 0.672 µM and 6.34 µM, respectively.

`CON(C)[C@@H](CS(C)(=O)=O)c1cnc(-c2ccc3ncnc(Nc4ccc(OCc5cccc(F)c5)c(Cl)c4)c3c2)s1` [Compound 130]: the IC50 in the test on A431 (A431 cells) was determined as 0.536 µM; in the test with MCF-7 (MCF-7 cells), 8.59 µM.

`CS(=O)(=O)C[C@H](NCC1CC1)c1ccc(-c2ccc3ncnc(Nc4ccc(OCc5cccc(F)c5)c(Cl)c4)c3c2)o1` [Compound 109, (R)—N-(4-(3-fluorobenzyl-oxy)-3-chlorophenyl)-6-(5-(1-(cyclopropylmethyl-amino)-2-(methylsulfonyl)ethyl)furan-2-yl)quinazolin-4-amine]: the 50% inhibitory concentration (IC50) in the test with A431 (setting [1]) came out at 0.756 µM; with MCF-7 (setting [2]) it was 6.21 µM.

As to `CN(C1CC1)[C@H](CS(C)(=O)=O)c1ccc(-c2ccc3ncnc(Nc4ccc5c(cnn5Cc5cccc(F)c5)c4)c3c2)o1` [Compound 148, (S)—N-(1-(3-fluorobenzyl)-1H-indazol-5-yl)-6-(5-(1-(cyclopropyl-methyl-amino)-2-(methylsulfonyl)ethyl)furan-2-yl)quinazolin-4-amine], the IC50 with A431 (setting [1]) is 0.442 µM; in the test on MCF-7 (setting [2]), 7 µM.

As to `CCCN(CCC)[C@@H](CS(C)(=O)=O)c1cnc(-c2ccc3ncnc(Nc4ccc(OCc5cccc(F)c5)c(Cl)c4)c3c2)s1` [Compound 125], the IC50 in the test with A431 (A431 cells) is 0.523 µM; in the test with MCF-7 (MCF-7 cells), 7.76 µM.

As to `CN(C1CC1)[C@H](CS(C)(=O)=O)c1ccc(-c2ccc3ncnc(Nc4ccc(OCc5cccc(F)c5)c(Cl)c4)c3c2)o1` [Compound 96, (S)—N-(4-(3-fluorobenzyl-oxy)-3-chlorophenyl)-6-(5-(1-(cyclopropyl-methyl-amino)-2-(methylsulfonyl)ethyl)furan-2-yl)quinazolin-4-amine], the values for the IC50 with A431 (setting [1]) and with MCF-7 (setting [2]) were 0.578 µM and 6.7 µM, respectively.

As to `C#CCN[C@@H](CS(C)(=O)=O)c1ccc(-c2ccc3ncnc(Nc4ccc(OCc5cccc(F)c5)c(Cl)c4)c3c2)o1` [Compound 115, (R)—N-(4-(3-fluorobenzyl-oxy)-3-chlorophenyl)-6-(5-(1-(propargyl-amino)-2-(methylsulfonyl)ethyl)furan-2-yl)quinazolin-4-amine], the figures for the IC50 in the test on A431 (setting [1]) and in the test with MCF-7 (setting [2]) were 0.536 µM and 7.58 µM, respectively.

Regarding `CCCN[C@H](CS(C)(=O)=O)c1cnc(-c2ccc3ncnc(Nc4ccc(OCc5cccc(F)c5)c(Cl)c4)c3c2)s1` [Compound 134], the IC50 is 0.58 µM in the test with A431 (A431 cells) and 6.51 µM in the test on MCF-7 (MCF-7 cells).

Take `CON(C)[C@H](CS(C)(=O)=O)c1ccc(-c2ccc3ncnc(Nc4ccc(OCc5cccc(F)c5)c(Cl)c4)c3c2)o1` [Compound 104]: the IC50 in the test on A431 (A431 cells) was 0.632 µM; with MCF-7 (MCF-7 cells) it was 9 µM.

Source of the values: patent US20110281896A1, “OPTICALLY PURE QUINAZOLINE COMPOUNDS” (Jiangsu Hansoh Pharmaceutical Co. Ltd, priority 2009, published 2011).
